According to PubChem BioAssay (NCI):
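Dose response: 5 concentrations. Exposure: 48 h. Format: 96-well plates. Endpoint: linear interpolation; highest concentration if not reached. TGI: concentration producing complete growth inhibition.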

Columns and labels:
Test in all cases: growth of human tumour cells (NCI), 48 h
LOX IMVI melanoma = tested on: LOX IMVI melanoma
A549 NSCLC = tested on: A549 NSCLC
NCI-H522 lung = tested on: NCI-H522 lung
COLO 205 colon = tested on: COLO 205 colon
HCT-116 colon = tested on: HCT-116 colon
M19-MEL melanoma = tested on: M19-MEL melanoma
DLD-1 colon = tested on: DLD-1 colon
SF-539 CNS = tested on: SF-539 CNS
MALME-3M melanoma = tested on: MALME-3M melanoma
SN12C renal = tested on: SN12C renal
SR leukemia = tested on: SR leukemia
DMS 114 small cell lung = tested on: DMS 114 small cell lung
SK-MEL-28 melanoma = tested on: SK-MEL-28 melanoma
MOLT-4 leukemia = tested on: MOLT-4 leukemia
UO-31 renal = tested on: UO-31 renal
K-562 leukemia = tested on: K-562 leukemia
HOP-18 NSCLC = tested on: HOP-18 NSCLC
SK-MEL-5 melanoma = tested on: SK-MEL-5 melanoma
KM20L2 colon = tested on: KM20L2 colon
SF-268 CNS = tested on: SF-268 CNS
M14 melanoma = tested on: M14 melanoma
KM12 colon = tested on: KM12 colon
HT29 colon = tested on: HT29 colon
RXF 393 renal = tested on: RXF 393 renal
SF-295 CNS = tested on: SF-295 CNS
NCI-H226 lung = tested on: NCI-H226 lung
HCT-15 colon = tested on: HCT-15 colon
EKVX NSCLC = tested on: EKVX NSCLC
DMS 273 small cell lung = tested on: DMS 273 small cell lung
SNB-19 CNS = tested on: SNB-19 CNS
OVCAR-4 ovarian = tested on: OVCAR-4 ovarian
SW-620 colon = tested on: SW-620 colon
OVCAR-3 ovarian = tested on: OVCAR-3 ovarian
NCI-H23 lung = tested on: NCI-H23 lung
RXF-631 renal = tested on: RXF-631 renal
SNB-78 CNS = tested on: SNB-78 CNS
OVCAR-5 ovarian = tested on: OVCAR-5 ovarian
SK-OV-3 ovarian = tested on: SK-OV-3 ovarian
ACHN renal = tested on: ACHN renal
CCRF-CEM leukemia = tested on: CCRF-CEM leukemia
LXFL 529 NSCLC = tested on: LXFL 529 NSCLC
UACC-62 melanoma = tested on: UACC-62 melanoma
HCC-2998 colon = tested on: HCC-2998 colon
TK-10 renal = tested on: TK-10 renal
SNB-75 CNS = tested on: SNB-75 CNS
HL-60(TB) leukemia = tested on: HL-60(TB) leukemia
A498 renal = tested on: A498 renal
786-0 renal = tested on: 786-0 renal
IGROV1 ovarian = tested on: IGROV1 ovarian
U251 CNS = tested on: U251 CNS
HOP-92 NSCLC = tested on: HOP-92 NSCLC
HOP-62 NSCLC = tested on: HOP-62 NSCLC
NCI-H460 lung = tested on: NCI-H460 lung
UACC-257 melanoma = tested on: UACC-257 melanoma
RPMI-8226 leukemia = tested on: RPMI-8226 leukemia
OVCAR-8 ovarian = tested on: OVCAR-8 ovarian
CAKI-1 renal = tested on: CAKI-1 renal
XF 498 CNS = tested on: XF 498 CNS
SK-MEL-2 melanoma = tested on: SK-MEL-2 melanoma

COc1ccc(-c2cc(-c3ccccc3)c(C#N)c(=O)[nH]2)cc1
TGI (LOX IMVI melanoma): > 100 µM
TGI (A549 NSCLC): > 100 µM
TGI (NCI-H522 lung): > 100 µM
TGI (COLO 205 colon): > 100 µM
TGI (HCT-116 colon): > 100 µM
TGI (M19-MEL melanoma): > 100 µM
TGI (DLD-1 colon): > 100 µM
TGI (SF-539 CNS): > 100 µM
TGI (MALME-3M melanoma): > 100 µM
TGI (SN12C renal): > 100 µM
TGI (SR leukemia): > 100 µM
TGI (DMS 114 small cell lung): > 100 µM
TGI (SK-MEL-28 melanoma): > 100 µM
TGI (MOLT-4 leukemia): > 100 µM
TGI (UO-31 renal): > 100 µM
TGI (K-562 leukemia): > 100 µM
TGI (HOP-18 NSCLC): > 100 µM
TGI (SK-MEL-5 melanoma): > 100 µM
TGI (KM20L2 colon): > 100 µM
TGI (SF-268 CNS): > 100 µM
TGI (M14 melanoma): > 100 µM
TGI (KM12 colon): > 100 µM
TGI (HT29 colon): > 100 µM
TGI (RXF 393 renal): > 100 µM
TGI (SF-295 CNS): > 100 µM
TGI (NCI-H226 lung): > 100 µM
TGI (HCT-15 colon): > 100 µM
TGI (EKVX NSCLC): > 100 µM
TGI (DMS 273 small cell lung): > 100 µM
TGI (SNB-19 CNS): > 100 µM
TGI (OVCAR-4 ovarian): > 100 µM
TGI (SW-620 colon): > 100 µM
TGI (OVCAR-3 ovarian): > 100 µM
TGI (NCI-H23 lung): > 100 µM
TGI (RXF-631 renal): > 100 µM
TGI (SNB-78 CNS): > 100 µM
TGI (OVCAR-5 ovarian): > 100 µM
TGI (SK-OV-3 ovarian): > 100 µM
TGI (ACHN renal): > 100 µM
TGI (CCRF-CEM leukemia): > 100 µM
TGI (LXFL 529 NSCLC): > 100 µM
TGI (UACC-62 melanoma): > 100 µM
TGI (HCC-2998 colon): > 100 µM
TGI (TK-10 renal): > 100 µM
TGI (SNB-75 CNS): > 100 µM
TGI (HL-60(TB) leukemia): > 100 µM
TGI (A498 renal): > 100 µM
TGI (786-0 renal): > 100 µM
TGI (IGROV1 ovarian): > 100 µM
TGI (U251 CNS): > 100 µM
TGI (HOP-92 NSCLC): > 100 µM
TGI (HOP-62 NSCLC): > 100 µM
TGI (NCI-H460 lung): > 100 µM
TGI (UACC-257 melanoma): > 100 µM
TGI (RPMI-8226 leukemia): > 100 µM
TGI (OVCAR-8 ovarian): > 100 µM

COc1cc(/C=C(\NC(=O)c2ccccc2)c2nc3ccc([N+](=O)[O-])cc3[nH]2)cc(OC)c1OC
TGI (NCI-H522 lung): > 100 µM
TGI (COLO 205 colon): > 100 µM
TGI (M19-MEL melanoma): > 100 µM
TGI (DLD-1 colon): > 100 µM
TGI (MALME-3M melanoma): > 100 µM
TGI (CAKI-1 renal): > 100 µM
TGI (SN12C renal): > 100 µM
TGI (SR leukemia): > 100 µM
TGI (XF 498 CNS): > 100 µM
TGI (DMS 114 small cell lung): > 100 µM
TGI (SK-MEL-28 melanoma): > 100 µM
TGI (MOLT-4 leukemia): > 100 µM
TGI (UO-31 renal): 89.5 µM
TGI (K-562 leukemia): > 100 µM
TGI (SK-MEL-5 melanoma): > 100 µM
TGI (KM20L2 colon): > 100 µM
TGI (M14 melanoma): > 100 µM
TGI (KM12 colon): > 100 µM
TGI (HT29 colon): > 100 µM
TGI (RXF 393 renal): > 100 µM
TGI (SF-295 CNS): > 100 µM
TGI (HCT-15 colon): > 100 µM
TGI (SNB-19 CNS): > 100 µM
TGI (OVCAR-4 ovarian): > 100 µM
TGI (SK-MEL-2 melanoma): > 100 µM
TGI (SW-620 colon): > 100 µM
TGI (OVCAR-3 ovarian): > 100 µM
TGI (NCI-H23 lung): > 100 µM
TGI (SNB-78 CNS): > 100 µM
TGI (OVCAR-5 ovarian): > 100 µM
TGI (SK-OV-3 ovarian): > 100 µM
TGI (CCRF-CEM leukemia): > 100 µM
TGI (LXFL 529 NSCLC): > 100 µM
TGI (UACC-62 melanoma): > 100 µM
TGI (HCC-2998 colon): > 100 µM
TGI (TK-10 renal): > 100 µM
TGI (IGROV1 ovarian): > 100 µM
TGI (U251 CNS): > 100 µM
TGI (HOP-92 NSCLC): > 100 µM
TGI (OVCAR-8 ovarian): > 100 µM
